From ChEMBL document CHEMBL3992550, “An epigenetic modifier induces production of (10'S)-verruculide B, an inhibitor of protein tyrosine phosphatases by Phoma sp. nov. LG0217, a fungal endophyte of Parkinsonia microphylla” (Bioorg Med Chem, 2017) come the findings set out here.

In experiment [1] the target is Tyrosine-protein phosphatase non-receptor type 6 (Homo sapiens, UniProt P29350). Briefly: Inhibition of SHP1 (unknown origin) expressed in Escherichia coli BL21(DE3) using pNPP as substrate preincubated for 15 mins followed by substrate addition measured after 10 mins.
Chain of Tyrosine-protein phosphatase non-receptor type 6 (P29350 whole entry): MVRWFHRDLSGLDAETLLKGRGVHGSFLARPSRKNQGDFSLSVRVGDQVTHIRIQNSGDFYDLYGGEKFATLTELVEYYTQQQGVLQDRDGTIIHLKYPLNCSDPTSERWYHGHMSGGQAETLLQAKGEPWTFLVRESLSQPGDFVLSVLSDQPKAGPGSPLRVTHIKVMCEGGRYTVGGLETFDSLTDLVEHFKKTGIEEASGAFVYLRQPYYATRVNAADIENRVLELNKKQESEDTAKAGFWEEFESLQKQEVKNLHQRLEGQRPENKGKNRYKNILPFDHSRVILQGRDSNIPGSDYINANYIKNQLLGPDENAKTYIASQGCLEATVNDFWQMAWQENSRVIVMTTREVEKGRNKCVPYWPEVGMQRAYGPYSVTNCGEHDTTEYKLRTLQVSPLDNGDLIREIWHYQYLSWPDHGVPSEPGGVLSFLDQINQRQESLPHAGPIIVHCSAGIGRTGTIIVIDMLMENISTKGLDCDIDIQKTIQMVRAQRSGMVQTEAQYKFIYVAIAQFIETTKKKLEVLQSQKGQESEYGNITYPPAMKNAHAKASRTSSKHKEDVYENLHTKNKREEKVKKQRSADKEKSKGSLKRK
The target of experiment [2] is T1, Tyrosine-protein phosphatase non-receptor type 1 (Homo sapiens, UniProt P18031).
T1 sequence (P18031 whole entry): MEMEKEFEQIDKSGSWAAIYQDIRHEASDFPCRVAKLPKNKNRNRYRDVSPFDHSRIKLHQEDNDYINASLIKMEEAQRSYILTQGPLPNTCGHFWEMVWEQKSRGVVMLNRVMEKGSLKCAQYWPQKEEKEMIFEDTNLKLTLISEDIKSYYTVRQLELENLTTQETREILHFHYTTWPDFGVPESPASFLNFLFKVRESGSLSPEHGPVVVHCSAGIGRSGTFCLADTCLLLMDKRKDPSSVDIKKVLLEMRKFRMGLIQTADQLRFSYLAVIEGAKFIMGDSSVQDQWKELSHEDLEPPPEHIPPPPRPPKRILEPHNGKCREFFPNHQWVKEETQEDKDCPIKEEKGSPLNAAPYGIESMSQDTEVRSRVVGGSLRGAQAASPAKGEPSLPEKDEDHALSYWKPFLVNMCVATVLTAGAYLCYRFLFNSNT
Nature of the experiment: Inhibition of PTP1B (unknown origin) expressed in Escherichia coli BL21(DE3) using pNPP as substrate preincubated for 15 mins followed by substrate addition measured after 10 mins.

Experiment [3] concerns the target T2, Tyrosine-protein phosphatase non-receptor type 2 (Homo sapiens, UniProt P17706).
T2 sequence (P17706 whole entry): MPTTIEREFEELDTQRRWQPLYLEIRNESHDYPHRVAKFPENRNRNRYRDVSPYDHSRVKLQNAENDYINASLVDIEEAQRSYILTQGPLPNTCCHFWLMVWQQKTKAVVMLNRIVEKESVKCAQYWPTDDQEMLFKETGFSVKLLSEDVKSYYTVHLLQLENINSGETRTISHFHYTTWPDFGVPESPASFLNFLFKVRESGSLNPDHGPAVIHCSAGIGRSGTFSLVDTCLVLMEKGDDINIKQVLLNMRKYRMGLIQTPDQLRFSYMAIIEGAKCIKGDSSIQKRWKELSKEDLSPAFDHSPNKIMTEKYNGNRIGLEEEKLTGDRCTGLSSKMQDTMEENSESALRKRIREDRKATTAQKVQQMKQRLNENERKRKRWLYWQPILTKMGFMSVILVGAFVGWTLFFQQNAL
Nature of the experiment: Inhibition of TCPTP (unknown origin) expressed in Escherichia coli BL21(DE3) using pNPP as substrate preincubated for 15 mins followed by substrate addition measured after 10 mins.

What is called IC50 is the point on the concentration scale where inhibition reaches its midpoint. A high value points to weaker potency. As for `C/C(=C\Cc1c(O)cc(O)c2c1C[C@@H](C)OC2=O)CC/C=C(\C)CC[C@H](O)C(C)(C)O`, the IC50 came to 8.8 µM in experiment [1], 13.7 µM in experiment [2] and 16.6 µM in experiment [3].
